System: R6/1 mice
Conditions: oral in drinking water from 3 weeks of age, open field at 13 weeks, rotarod at 18 weeks, biotin 10 mg/kg/day or thiamine 200 mg/kg/day, given separately, FIG. 6A-B

Structure (SMILES): Cc1ncc(C[n+]2csc(CCO)c2C)c(N)n1 [thiamine]
- effect on hypoactivity (open field, distance covered) and motor coordination deficit (rotarod, time to fall): only showed improving trends in some of the behavioural tests
